Test results as given in ChEMBL document CHEMBL1131152, “In vitro and in vivo activities of oligodeoxynucleotide-based thrombin inhibitors containing neutral formacetal linkages” (J Med Chem, 1998).

Molecular target: Prothrombin (Homo sapiens) (UniProt P00734)
Assay: Relative prothrombin time was determined as the activity of the test ODN (oligodeoxynucleotide) relative to that of GS-522

`Cc1cn([C@H]2C[C@H](OP(=O)(O)OC[C@H]3O[C@@H](n4cnc5c(=O)[nH]c(=N)[nH]c54)C[C@@H]3OP(=O)(O)OC[C@H]3O[C@@H](n4cc(C)c(=O)[nH]c4=O)C[C@@H]3OP(=O)(O)OC[C@H]3O[C@@H](n4cnc5c(=O)nc(N)[nH]c54)C[C@@H]3OP(=O)(O)OC[C@H]3O[C@@H](n4cnc5c(=O)[nH]c(=N)[nH]c54)C[C@@H]3OP(=O)(O)OC[C@H]3O[C@@H](n4cc(C)c(=O)[nH]c4=O)C[C@@H]3OP(=O)(O)OC[C@H]3O[C@@H](n4cc(C)c(=O)[nH]c4=O)C[C@@H]3OP(=O)(O)OC[C@H]3O[C@@H](n4cnc5c(=O)[nH]c(=N)[nH]c54)C[C@@H]3OP(=O)(O)OC[C@H]3O[C@@H](n4cnc5c(=O)nc(N)[nH]c54)C[C@@H]3O)[C@@H](COCO[C@H]3C[C@H](n4cnc5c(=O)[nH]c(=N)[nH]c54)O[C@@H]3COP(=O)(O)O[C@H]3C[C@H](n4cnc5c(=O)nc(N)[nH]c54)O[C@@H]3COP(=O)(O)O[C@H]3C[C@H](n4cc(C)c(=O)[nH]c4=O)O[C@@H]3COP(=O)(O)O[C@H]3C[C@H](n4cc(C)c(=O)[nH]c4=O)O[C@@H]3COP(=O)(O)O[C@H]3C[C@H](n4cnc5c(=O)nc(N)[nH]c54)O[C@@H]3COP(=O)(O)O[C@H]3C[C@H](n4cnc5c(=O)nc(N)[nH]c54)O[C@@H]3COP(=O)(O)O)O2)c(=O)[nH]c1=O` and `Cc1cn([C@H]2C[C@H](OP(=O)(O)OC[C@H]3O[C@@H](n4cnc5c(=O)nc(N)[nH]c54)C[C@@H]3OCOC[C@H]3O[C@@H](n4cnc5c(=O)[nH]c(=N)[nH]c54)C[C@@H]3OP(=O)(O)OC[C@H]3O[C@@H](n4cc(C)c(=O)[nH]c4=O)C[C@@H]3OP(=O)(O)OC[C@H]3O[C@@H](n4cnc5c(=O)nc(N)[nH]c54)C[C@@H]3OP(=O)(O)OC[C@H]3O[C@@H](n4cc(C)c(=O)[nH]c4=O)C[C@@H]3OP(=O)(O)OC[C@H]3O[C@@H](n4cnc5c(=O)nc(N)[nH]c54)C[C@@H]3OP(=O)(O)OC[C@H]3O[C@@H](n4cnc5c(=O)[nH]c(=N)[nH]c54)C[C@@H]3OP(=O)(O)OC[C@H]3O[C@@H](n4cc(C)c(=O)[nH]c4=O)C[C@@H]3OP(=O)(O)OC[C@H]3O[C@@H](n4cc(C)c(=O)[nH]c4=O)C[C@@H]3OP(=O)(O)OC[C@H]3O[C@@H](n4cnc5c(=O)[nH]c(=N)[nH]c54)C[C@@H]3OP(=O)(O)OC[C@H]3O[C@@H](n4cnc5c(=O)nc(N)[nH]c54)C[C@@H]3O)[C@@H](COP(=O)(O)O[C@H]3C[C@H](n4cc(C)c(=O)[nH]c4=O)O[C@@H]3COP(=O)(O)O[C@H]3C[C@H](n4cnc5c(=O)[nH]c(=N)[nH]c54)O[C@@H]3COP(=O)(O)O[C@H]3C[C@H](n4cnc5c(=O)nc(N)[nH]c54)O[C@@H]3COP(=O)(O)O)O2)c(=O)[nH]c1=O` are the same in Relative PT: 0.8 for the first, 0.8 for the second.

First: Cc1cn([C@H]2C[C@H](OCOC[C@H]3O[C@@H](n4cnc5c(=O)[nH]c(=N)[nH]c54)C[C@@H]3OP(=O)(O)OC[C@H]3O[C@@H](n4cnc5c(=O)nc(N)[nH]c54)C[C@@H]3O)[C@@H](COP(=O)(O)O[C@H]3C[C@H](n4cc(C)c(=O)[nH]c4=O)O[C@@H]3COP(=O)(O)O[C@H]3C[C@H](n4cnc5c(=O)[nH]c(=N)[nH]c54)O[C@@H]3COP(=O)(O)O[C@H]3C[C@H](n4cnc5c(=O)nc(N)[nH]c54)O[C@@H]3COP(=O)(O)O[C@H]3C[C@H](n4cc(C)c(=O)[nH]c4=O)O[C@@H]3COP(=O)(O)O[C@H]3C[C@H](n4cnc5c(=O)nc(N)[nH]c54)O[C@@H]3COP(=O)(O)O[C@H]3C[C@H](n4cc(C)c(=O)[nH]c4=O)O[C@@H]3COP(=O)(O)O[C@H]3C[C@H](n4cnc5c(=O)[nH]c(=N)[nH]c54)O[C@@H]3COP(=O)(O)O[C@H]3C[C@H](n4cnc5c(=O)nc(N)[nH]c54)O[C@@H]3COP(=O)(O)O[C@H]3C[C@H](n4cc(C)c(=O)[nH]c4=O)O[C@@H]3COCO[C@H]3C[C@H](n4cc(C)c(=O)[nH]c4=O)O[C@@H]3COP(=O)(O)O[C@H]3C[C@H](n4cnc5c(=O)nc(N)[nH]c54)O[C@@H]3COP(=O)(O)O[C@H]3C[C@H](n4cnc5c(=O)nc(N)[nH]c54)O[C@@H]3COP(=O)(O)O)O2)c(=O)[nH]c1=O
Second: Cc1cn([C@H]2C[C@H](OP(=O)(O)OC[C@H]3O[C@@H](n4cnc5c(=O)nc(N)[nH]c54)C[C@@H]3OP(=O)(O)OC[C@H]3O[C@@H](n4cnc5c(=O)[nH]c(=N)[nH]c54)C[C@@H]3OP(=O)(O)OC[C@H]3O[C@@H](n4cc(C)c(=O)[nH]c4=O)C[C@@H]3OP(=O)(O)OC[C@H]3O[C@@H](n4cnc5c(=O)[nH]c(=N)[nH]c54)C[C@@H]3OP(=O)(O)OC[C@H]3O[C@@H](n4cc(C)c(=O)[nH]c4=O)C[C@@H]3OP(=O)(O)OC[C@H]3O[C@@H](n4cnc5c(=O)nc(N)[nH]c54)C[C@@H]3OCOC[C@H]3O[C@@H](n4cnc5c(=O)[nH]c(=N)[nH]c54)C[C@@H]3OP(=O)(O)OC[C@H]3O[C@@H](n4cc(C)c(=O)[nH]c4=O)C[C@@H]3OP(=O)(O)OC[C@H]3O[C@@H](n4cc(C)c(=O)[nH]c4=O)C[C@@H]3OP(=O)(O)OC[C@H]3O[C@@H](n4cnc5c(=O)[nH]c(=N)[nH]c54)C[C@@H]3OCOC[C@H]3O[C@@H](n4cnc5c(=O)nc(N)[nH]c54)C[C@@H]3O)[C@@H](COP(=O)(O)O[C@H]3C[C@H](n4cc(C)c(=O)[nH]c4=O)O[C@@H]3COP(=O)(O)O[C@H]3C[C@H](n4cnc5c(=O)nc(N)[nH]c54)O[C@@H]3COP(=O)(O)O[C@H]3C[C@H](n4cnc5c(=O)[nH]c(=N)[nH]c54)O[C@@H]3COP(=O)(O)O)O2)c(=O)[nH]c1=O
The Relative PT of the first is lower: 0.6 for the first, 0.8 for the second.

First: Cc1cn([C@H]2C[C@H](OCOC[C@H]3O[C@@H](n4cnc5c(=O)nc(N)[nH]c54)C[C@@H]3OP(=O)(O)OC[C@H]3O[C@@H](n4cnc5c(=O)[nH]c(=N)[nH]c54)C[C@@H]3OP(=O)(O)OC[C@H]3O[C@@H](n4cc(C)c(=O)[nH]c4=O)C[C@@H]3OP(=O)(O)OC[C@H]3O[C@@H](n4cnc5c(=O)[nH]c(=N)[nH]c54)C[C@@H]3OP(=O)(O)OC[C@H]3O[C@@H](n4cc(C)c(=O)[nH]c4=O)C[C@@H]3OCOC[C@H]3O[C@@H](n4cnc5c(=O)nc(N)[nH]c54)C[C@@H]3OP(=O)(O)OC[C@H]3O[C@@H](n4cnc5c(=O)[nH]c(=N)[nH]c54)C[C@@H]3OP(=O)(O)OC[C@H]3O[C@@H](n4cc(C)c(=O)[nH]c4=O)C[C@@H]3OP(=O)(O)OC[C@H]3O[C@@H](n4cc(C)c(=O)[nH]c4=O)C[C@@H]3OP(=O)(O)OC[C@H]3O[C@@H](n4cnc5c(=O)[nH]c(=N)[nH]c54)C[C@@H]3OP(=O)(O)OC[C@H]3O[C@@H](n4cnc5c(=O)nc(N)[nH]c54)C[C@@H]3O)[C@@H](COP(=O)(O)O[C@H]3C[C@H](n4cc(C)c(=O)[nH]c4=O)O[C@@H]3COP(=O)(O)O[C@H]3C[C@H](n4cnc5c(=O)[nH]c(=N)[nH]c54)O[C@@H]3COP(=O)(O)O[C@H]3C[C@H](n4cnc5c(=O)[nH]c(=N)[nH]c54)O[C@@H]3COP(=O)(O)O)O2)c(=O)[nH]c1=O
Second: Cc1cn([C@H]2C[C@H](OP(=O)(O)OC[C@H]3O[C@@H](n4cc(C)c(=O)[nH]c4=O)C[C@@H]3OP(=O)(O)OC[C@H]3O[C@@H](n4cnc5c(=O)nc(N)[nH]c54)C[C@@H]3OP(=O)(O)OC[C@H]3O[C@@H](n4cnc5c(=O)[nH]c(=N)[nH]c54)C[C@@H]3OP(=O)(O)OC[C@H]3O[C@@H](n4cc(C)c(=O)[nH]c4=O)C[C@@H]3OP(=O)(O)OC[C@H]3O[C@@H](n4cnc5c(=O)[nH]c(=N)[nH]c54)C[C@@H]3OP(=O)(O)OC[C@H]3O[C@@H](n4cc(C)c(=O)[nH]c4=O)C[C@@H]3OP(=O)(O)OC[C@H]3O[C@@H](n4cnc5c(=O)nc(N)[nH]c54)C[C@@H]3OP(=O)(O)OC[C@H]3O[C@@H](n4cnc5c(=O)[nH]c(=N)[nH]c54)C[C@@H]3OP(=O)(O)OC[C@H]3O[C@@H](n4cc(C)c(=O)[nH]c4=O)C[C@@H]3OP(=O)(O)OC[C@H]3O[C@@H](n4cc(C)c(=O)[nH]c4=O)C[C@@H]3OP(=O)(O)OC[C@H]3O[C@@H](n4cnc5c(=O)[nH]c(=N)[nH]c54)C[C@@H]3OP(=O)(O)OC[C@H]3O[C@@H](n4cnc5c(=O)nc(N)[nH]c54)C[C@@H]3O)[C@@H](COCO[C@H]3C[C@H](n4cnc5c(=O)nc(N)[nH]c54)O[C@@H]3COP(=O)(O)O[C@H]3C[C@H](n4cnc5c(=O)nc(N)[nH]c54)O[C@@H]3COP(=O)(O)O)O2)c(=O)[nH]c1=O
The Relative PT of the first is lower: 0.7 for the first, 0.9 for the second.

`Cc1cn([C@H]2C[C@H](OCOC[C@H]3O[C@@H](n4cc(C)c(=O)[nH]c4=O)C[C@@H]3OP(=O)(O)OC[C@H]3O[C@@H](n4cnc5c(=O)nc(N)[nH]c54)C[C@@H]3OP(=O)(O)OC[C@H]3O[C@@H](n4cnc5c(=O)[nH]c(=N)[nH]c54)C[C@@H]3OP(=O)(O)OC[C@H]3O[C@@H](n4cc(C)c(=O)[nH]c4=O)C[C@@H]3OP(=O)(O)OC[C@H]3O[C@@H](n4cnc5c(=O)nc(N)[nH]c54)C[C@@H]3OP(=O)(O)OC[C@H]3O[C@@H](n4cc(C)c(=O)[nH]c4=O)C[C@@H]3OP(=O)(O)OC[C@H]3O[C@@H](n4cnc5c(=O)nc(N)[nH]c54)C[C@@H]3OP(=O)(O)OC[C@H]3O[C@@H](n4cnc5c(=O)[nH]c(=N)[nH]c54)C[C@@H]3OP(=O)(O)OC[C@H]3O[C@@H](n4cc(C)c(=O)[nH]c4=O)C[C@@H]3OP(=O)(O)OC[C@H]3O[C@@H](n4cc(C)c(=O)[nH]c4=O)C[C@@H]3OP(=O)(O)OC[C@H]3O[C@@H](n4cnc5c(=O)[nH]c(=N)[nH]c54)C[C@@H]3OP(=O)(O)OC[C@H]3O[C@@H](n4cnc5c(=O)nc(N)[nH]c54)C[C@@H]3O)[C@@H](COP(=O)(O)O[C@H]3C[C@H](n4cnc5c(=O)[nH]c(=N)[nH]c54)O[C@@H]3COP(=O)(O)O[C@H]3C[C@H](n4cnc5c(=O)nc(N)[nH]c54)O[C@@H]3COP(=O)(O)O)O2)c(=O)[nH]c1=O` showed a Relative PT of 1.1.
